{"source": "patent US5273991A", "about": "“Imidazole-containing compositions and methods of use thereof analogs of distamycin” (Research Corporation Technologies, Inc., priority 1992, dated 1993)", "system": "OVCAR-8", "assay": "NCI cytotoxicity screen (SRB)", "type": "cell-based, human"}
{"smiles": "CN(C)CCNC(=O)c1nc(NC(=O)c2nc(NC(=O)c3ccc(N(CCCl)CCCl)cc3)cn2C)cn1C", "note": "[Compound 6, N-(N',N'-dimethylaminoethyl)-1-methyl-4-{4-[4,4-bis(2-chloroethyl)aminobenzamido]-1-methylimidazole-2-carboxamido}imidazole-2-carboxamide]", "values": [{"measurement": "IC50", "setting": "48 h, Ovarian Cancer OVCAR-8", "value": 45.3, "unit": "µM"}, {"measurement": "IC50", "setting": "OVCAR-8, subsequent test date", "value": 20.8, "unit": "µM"}]}
